Assays:
Assay type in all cases: physicochemical
[1] = Release of Tenofovir from Tecoflex EG-80A and EG-85A small rings with and without PEG2000; details: Tecoflex EG-80A and EG-85A matrices, 50 mg/g, 5% w/w PEG, pH 4.2 acetate buffer, 15 days
Protocol: Incorporation of Tenofovir and PEG2000 in Tecoflex EG-80A and EG-85A matrices: Homogenous distribution of Tenofovir and PEG2000 in Tecoflex EG-80A or EG-85A_matrices were achieved by solvent casting. Tenofovir (500 mg) with or without PEG2000 (500 mg) were dissolved in 75:25 mixture of dichloromethane and tetrahydrofuran. About 75% of the solvent was removed under reduced pressure and the viscous solution was poured into a silanized crystallization flask which was further dried under air at a flow rate of 4 L/min for 2-3 days. The Tenofovir incorporated polymer films thus obtained were cut into small pieces and further dried under high vacuum until constant weight was achieved.
Solid cross-sectional rods were obtained by extrusion of polymer films obtained in the above step at 155-165° C. using a lab scale extruder (CSI Max Mixing Extruder CS-194A, Custom Scientific Instrument Inc., Easton, Pa.). Small rings were fabricated by joining the ends of rods of approximately 6 cm in length. The release profile of Tenofovir was measured from Tenofovir loaded small rings using pH 4.2 25 mM acetate buffer (osmolarity adjusted to 310 mOsm/kg using NaCl, 0.02% sodium azide) at 37° C. and 60 rpm. […] HPLC analyses were performed and the cumulative release was calculated by integrating the area under the curve using Kaleidagraph software (Synergy Software, Reading, Pa.). […]

[2] = Release of Tenofovir from Tecoflex EG-93A matrices with PEG2000 with and without salts; details: 5% w/w PEG
Protocol: Incorporation of Tenofovir and PEG2000 and salts in EG-93A matrices: Homogenous distribution of Tenofovir, PEG2000 with and without salts in Tecoflex EG-93A_matrices were achieved by solvent casting. Tenofovir (250 mg), PEG2000 (250 mg (5% w/w)) and salts (NaCl=50 mg (1% w/w) or 125 mg (2.5% w/w) or CaCl2=125 mg (2.5% w/w)) were dispersed in 75:25 mixture of dichloromethane and tetrahydrofuran followed by sonication for 30 minutes. About 75% of the solvent was removed under reduced pressure and the viscous solution was poured into a silanized crystallization flask which was further dried under air at a flow rate of 4 L/min for 2-3 days. The Tenofovir incorporated polymer films thus obtained were cut into small pieces and further dried under high vacuum until constant weight was achieved. About 1.2 g of the polymer film pieces were taken in a 20 mL scintillation vial which was incubated at 210° C. for about 5-6 minutes to allow the polymer pieces to melt and fuse to form a continuous film in the bottom of the vial. Then 5 mL of sink (25 mM pH 4.2 buffer, osmolarity adjusted to 310 mOsm/kg with NaCl, and 0.02% sodium azide) was added. The sink was replaced with fresh buffer every 24±0.5 h for 15 days. HPLC analyses were performed and the cumulative release was calculated by integrating the area under the curve using Kaleidagraph software (Synergy Software, Reading, Pa.). […]

[3] = In vitro release of AMP from PEG2000-containing PU rods; details: pH 4.2 acetate buffer; for release profile: 37° C.
Protocol: Incorporation of AMP in PU matrix: Homogenous distribution of AMP and PEG2000 in the PU matrix was achieved by solvent casting. AMP (500 mg), PEG2000 (500 mg (5% w/w), 1000 mg (10% w/w) and 1500 mg (15% w/w)) and PU (added to make the total weight of PEG+AMP+PU mixture to 10 g) were dissolved in 75:25 mixture of dichloromethane and tetrahydrofuran. About 75% of the solvent was removed under reduced pressure and the viscous solution of PU, AMP and PEG2000 was poured into a silanized crystallization flask which was further dried under air at a flow rate of 4 L/min for 2-3 days. The […] incorporated PU films thus obtained were cut into small pieces and further dried under high vacuum until constant weight was achieved.
Extrusion of PEG2000 and AMP loaded solid cross-sectional PU: Extrusion was conducted at 165-175° C. into solid cross-sectional rods using a lab scale extruder (CSI Max Mixing Extruder CS-194A, Custom Scientific Instrument Inc., Easton, Pa.). The extruded and molten polymer output from the extruder was immediately fed to an aluminum mold (4.3 mm diameter, 25 cm length, previously spray coated with mold release agent) maintained at 120° C. The mold was cooled to below 80° C. and opened carefully without stretching the PU rod. The release profile of AMP was measured from PU rods using pH 4.2 25 mM acetate buffer (osmolarity adjusted to 310 mOsm/kg using NaCl, 0.02% sodium azide) at 37° C. and 60 rpm. About 2 cm length segments were cut from the solid cross-sectional AMP loaded PU rods. The dimensions (length and diameter) and weight of each segment were recorded. The sink was replaced with fresh buffer every 24±0.5 h for 10 days. HPLC analyses were performed and the cumulative release was calculated by integrating the area under the curve using Kaleidagraph software (Synergy Software, Reading, Pa.). The release study for each loading was performed on triplicate samples. […] A burst release is obtained in all PEG-PU compositions that is proportional to the PEG concentration.

release profile ([2]; 2.5 w/w CaCl2) | release profile ([2]; 2.5 w/w NaCl) | release profile ([3]; 5% w/w PEG in PU) | release profile ([3]; 10% w/w PEG in PU) | release profile ([3]; 15% w/w PEG in PU) | SMILES | effect of PEG incorporation on release [1] | effect of PEG incorporation on release ([3]; PEG-PU rods vs PU)
nearly zero-order release | nearly zero-order release | – | – | – | C[C@H](Cn1cnc2c(N)ncnc21)OCP(=O)(O)O [Tenofovir, ({[(2R)-1-(6-amino-9H-purin-9-yl)propan-2-yl]oxy}methyl)phosphonic acid] | increases the overall amount of drug released per day | –
– | – | zero order | diffusion limited | diffusion limited | Nc1ncnc2c1ncn2[C@@H]1O[C@H](COP(=O)(O)O)[C@@H](O)[C@H]1O [AMP, Adenosine Monophosphate] | – | increases the overall amount of drug released per day

— patent US20110045076A1, “LINEAR ORDER RELEASE POLYMER” (priority 2008, published 2011)
